Laboratory results: PubChem BioAssay (NCI)
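Briefly, cells in 96-well plates were exposed to five compound concentrations for 48 h, and endpoints were estimated by linear interpolation. GI50 = concentration required for 50% inhibition of growth. At the TGI there is no net growth.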

Assays:
Experiment in all cases: NCI tumour cell line growth inhibition, 48 h
HS 578T breast = test system: HS 578T breast
HOP-92 NSCLC = test system: HOP-92 NSCLC
HCT-15 colon = test system: HCT-15 colon
NCI/ADR-RES ovarian = test system: NCI/ADR-RES ovarian
A498 renal = test system: A498 renal
RPMI-8226 leukemia = test system: RPMI-8226 leukemia
MCF7 breast = test system: MCF7 breast
MOLT-4 leukemia = test system: MOLT-4 leukemia
NCI-H226 lung = test system: NCI-H226 lung
SF-295 CNS = test system: SF-295 CNS

SMILES | GI50 (HS 578T breast) [µM] | TGI (HS 578T breast) [µM] | GI50 (HOP-92 NSCLC) [µM] | TGI (HOP-92 NSCLC) [µM] | GI50 (HCT-15 colon) [µM] | TGI (HCT-15 colon) [µM] | GI50 (NCI/ADR-RES ovarian) [µM] | TGI (NCI/ADR-RES ovarian) [µM] | GI50 (A498 renal) [µM] | TGI (A498 renal) [µM] | GI50 (RPMI-8226 leukemia) [µM] | TGI (RPMI-8226 leukemia) [µM] | GI50 (MCF7 breast) [µM] | TGI (MCF7 breast) [µM] | GI50 (MOLT-4 leukemia) [µM] | TGI (MOLT-4 leukemia) [µM] | GI50 (NCI-H226 lung) [µM] | TGI (NCI-H226 lung) [µM] | GI50 (SF-295 CNS) [µM] | TGI (SF-295 CNS) [µM]
Nc1nc(/C=C\c2ccccc2)nc(N2CCN(c3ccccc3)CC2)n1 | 61.8 | > 100 | 21 | 93.3 | 16.3 | 78 | 25.5 | 93.3 | 35.1 | 87.9 | 25.9 | > 100 | 26.5 | 84.1 | 36.8 | > 100 | 27.9 | 94.5 | 30 | > 100
CCCCCCCCCCCCOC1C(CNC(=O)C2OC3OC(C)(C)OC3C2NC(=O)CN2CCN(c3ccc(OC)cc3)CC2)OC2OC(C)(C)OC21 (stereo not drawn) | 3.78 | 17 | 3.17 | 12.2 | 3.53 | 11.3 | 4.03 | 16.1 | 7.96 | 20.3 | 2.13 | 4.73 | 2.81 | 8.29 | 3.12 | 10.8 | 5.56 | 19.2 | 5.12 | 18.4
O=C(c1ccc(Cl)cc1)C(O)c1ccc(Cl)cc1 (stereo not drawn) |  | > 100 |  | > 100 |  | > 100 |  | > 100 |  |  |  | > 100 |  | > 100 |  | 75.6 |  | > 100 |  | > 100
CC(=O)NNc1nc(C)c(C(/C=C/c2ccccc2O)=N/N=C(N)N)s1 |  | > 100 |  | > 100 |  | > 100 |  | > 100 |  | > 100 |  | > 100 |  | > 100 |  | > 100 |  | > 100 |  | > 100
Cc1cc(-c2cc(O)ccc2Cl)cc2nnc(Nc3ccc(OCCN4CCCC4)cc3)nc12 | 1.54 | 3.83 | 1.1 | 2.59 | 0.183 | 0.36 | 0.682 | 1.61 | 1.41 | 2.92 | 0.207 | 0.442 | 0.179 | 0.356 | 0.251 | 0.634 | 4.71 | 7.12 | 1.7 | 3.32
C#CCN(c1ccc(C(=O)N[C@@H](CCC(=O)N[C@H](CCC(=O)O)C(=O)O)C(=O)O)cc1)C1CCc2cc3nc(CO)[nH]c(=O)c3cc21 (stereo partly drawn) | > 100 | > 100 | > 53.4 | > 100 | > 29.9 | > 100 | 8.58 | > 100 |  | > 100 | 88 | > 100 | 0.899 | > 100 | 31.6 | > 100 | > 100 | > 100 | 5.01 | > 72.3
CC[C@@H](C)/C=C(C)/C=C/C(=O)c1c(O)c(-c2ccc(O)cc2)cn(O)c1=O | 2.83 | 34.5 | 0.137 | 1.86 | 0.396 | 16.1 | 0.327 | 10.7 | 0.479 | 13.1 | 0.504 | 18 | 0.365 | 16.5 | 0.31 | 15.7 | 0.274 | 4.88 | 0.703 | 9.99
COc1ccc(/C=C2/SC(Nc3nc(-c4nc(NC5=NC(=O)/C(=C\c6ccc(OC)cc6)S5)sc4C)c(C)s3)=NC2=O)cc1 | 0.288 | 1.61 | 6.15 | 19.1 | 0.397 | 7.82 | 0.648 | 4.39 | 0.806 | 4.22 | 0.572 | 3.21 | 1.59 | > 30.7 | 8.87 | > 50 | 4.98 | 24.9 | 0.255 | 4.97
O=C1C=CC(=O)c2c(O)c3c(c(O)c21)C[C@H](O)[C@H](O)[C@@H]3O |  | 7.87 |  | 2.87 |  | 7.19 |  | 8.16 |  | 13.3 |  | 4.85 |  | 3.49 |  | > 23.6 |  | 36.7 |  | 20.3
CCCCCC/C=C\CCCCCCCCCC1=C(CN2CCN(C)CC2)C(=O)C=C(OC)C1=O |  | 24.5 |  | 6.26 |  | 7.87 |  | 11.5 |  | 32.6 |  | 3.9 |  | 11.6 |  | 1.65 |  | 30 |  | 25.3
